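96-well plates; 48 h exposure; 5 concentrations. Endpoints by linear interpolation between flanking doses. Not reached: highest tested concentration assigned. TGI denotes the concentration required for complete inhibition of growth.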
How the values were obtained:
Assay in all cases: NCI tumour cell line growth inhibition, 48 h
786-0 renal = system: 786-0 renal
A498 renal = system: A498 renal
A549 NSCLC = system: A549 NSCLC
ACHN renal = system: ACHN renal
CAKI-1 renal = system: CAKI-1 renal
CCRF-CEM leukemia = system: CCRF-CEM leukemia
COLO 205 colon = system: COLO 205 colon
DLD-1 colon = system: DLD-1 colon
DMS 114 small cell lung = system: DMS 114 small cell lung
DMS 273 small cell lung = system: DMS 273 small cell lung
EKVX NSCLC = system: EKVX NSCLC
HCC-2998 colon = system: HCC-2998 colon
HCT-116 colon = system: HCT-116 colon
HCT-15 colon = system: HCT-15 colon
HOP-18 NSCLC = system: HOP-18 NSCLC
HOP-62 NSCLC = system: HOP-62 NSCLC
IGROV1 ovarian = system: IGROV1 ovarian
K-562 leukemia = system: K-562 leukemia
KM12 colon = system: KM12 colon
KM20L2 colon = system: KM20L2 colon
LOX IMVI melanoma = system: LOX IMVI melanoma
LXFL 529 NSCLC = system: LXFL 529 NSCLC
M14 melanoma = system: M14 melanoma
M19-MEL melanoma = system: M19-MEL melanoma
MALME-3M melanoma = system: MALME-3M melanoma
MOLT-4 leukemia = system: MOLT-4 leukemia
NCI-H226 lung = system: NCI-H226 lung
NCI-H23 lung = system: NCI-H23 lung
NCI-H460 lung = system: NCI-H460 lung
NCI-H522 lung = system: NCI-H522 lung
OVCAR-3 ovarian = system: OVCAR-3 ovarian
OVCAR-4 ovarian = system: OVCAR-4 ovarian
OVCAR-5 ovarian = system: OVCAR-5 ovarian
OVCAR-8 ovarian = system: OVCAR-8 ovarian
RXF 393 renal = system: RXF 393 renal
RXF-631 renal = system: RXF-631 renal
SF-268 CNS = system: SF-268 CNS
SF-295 CNS = system: SF-295 CNS
SF-539 CNS = system: SF-539 CNS
SK-MEL-2 melanoma = system: SK-MEL-2 melanoma
SK-MEL-28 melanoma = system: SK-MEL-28 melanoma
SK-MEL-5 melanoma = system: SK-MEL-5 melanoma
SK-OV-3 ovarian = system: SK-OV-3 ovarian
SN12C renal = system: SN12C renal
SNB-19 CNS = system: SNB-19 CNS
SNB-75 CNS = system: SNB-75 CNS
SNB-78 CNS = system: SNB-78 CNS
SR leukemia = system: SR leukemia
SW-620 colon = system: SW-620 colon
TK-10 renal = system: TK-10 renal
U251 CNS = system: U251 CNS
UACC-257 melanoma = system: UACC-257 melanoma
UACC-62 melanoma = system: UACC-62 melanoma
UO-31 renal = system: UO-31 renal
XF 498 CNS = system: XF 498 CNS
HL-60(TB) leukemia = system: HL-60(TB) leukemia
HOP-92 NSCLC = system: HOP-92 NSCLC
HT29 colon = system: HT29 colon
RPMI-8226 leukemia = system: RPMI-8226 leukemia

CN(C)C(=S)/N=c1\ssc(=S)n1Cc1ccncc1
TGI (786-0 renal): 66 µM | TGI (A498 renal): 73.8 µM | TGI (A549 NSCLC): > 100 µM | TGI (ACHN renal): 93.1 µM | TGI (CAKI-1 renal): 75.6 µM | TGI (CCRF-CEM leukemia): 57 µM | TGI (COLO 205 colon): > 100 µM | TGI (DLD-1 colon): 47.4 µM | TGI (DMS 114 small cell lung): 7.77 µM | TGI (DMS 273 small cell lung): 76.3 µM | TGI (EKVX NSCLC): > 100 µM | TGI (HCC-2998 colon): 57.3 µM | TGI (HCT-116 colon): 47.8 µM | TGI (HCT-15 colon): 55.1 µM | TGI (HOP-18 NSCLC): 57.6 µM | TGI (HOP-62 NSCLC): 92.2 µM | TGI (IGROV1 ovarian): 63.3 µM | TGI (K-562 leukemia): > 100 µM | TGI (KM12 colon): 16.8 µM | TGI (KM20L2 colon): > 100 µM | TGI (LOX IMVI melanoma): 39.9 µM | TGI (LXFL 529 NSCLC): 82.1 µM | TGI (M14 melanoma): 62.9 µM | TGI (M19-MEL melanoma): 27.8 µM | TGI (MALME-3M melanoma): 50.2 µM | TGI (MOLT-4 leukemia): 49.3 µM | TGI (NCI-H226 lung): > 100 µM | TGI (NCI-H23 lung): 60.7 µM | TGI (NCI-H460 lung): 31.5 µM | TGI (NCI-H522 lung): 2.99 µM | TGI (OVCAR-3 ovarian): 32.9 µM | TGI (OVCAR-4 ovarian): 95.2 µM | TGI (OVCAR-5 ovarian): > 100 µM | TGI (OVCAR-8 ovarian): 68.9 µM | TGI (RXF 393 renal): 70 µM | TGI (RXF-631 renal): 38.4 µM | TGI (SF-268 CNS): > 100 µM | TGI (SF-295 CNS): 83.8 µM | TGI (SF-539 CNS): 48.4 µM | TGI (SK-MEL-2 melanoma): 52.2 µM | TGI (SK-MEL-28 melanoma): > 100 µM | TGI (SK-MEL-5 melanoma): 17.4 µM | TGI (SK-OV-3 ovarian): 72.2 µM | TGI (SN12C renal): > 100 µM | TGI (SNB-19 CNS): > 100 µM | TGI (SNB-75 CNS): 58.5 µM | TGI (SNB-78 CNS): > 100 µM | TGI (SR leukemia): 45.4 µM | TGI (SW-620 colon): 48.8 µM | TGI (TK-10 renal): 80.3 µM | TGI (U251 CNS): 39 µM | TGI (UACC-257 melanoma): 83.5 µM | TGI (UACC-62 melanoma): 25.5 µM | TGI (UO-31 renal): 88.5 µM | TGI (XF 498 CNS): 24.9 µM

COc1cc2c(cc1OC)C(C(=O)c1cccc(OC)c1OC)C(=O)N(C)CC2 (configuration not stated)
TGI (786-0 renal): > 100 µM | TGI (A498 renal): > 100 µM | TGI (A549 NSCLC): > 100 µM | TGI (ACHN renal): > 100 µM | TGI (CAKI-1 renal): > 100 µM | TGI (CCRF-CEM leukemia): > 100 µM | TGI (COLO 205 colon): > 100 µM | TGI (DLD-1 colon): > 100 µM | TGI (DMS 114 small cell lung): > 100 µM | TGI (DMS 273 small cell lung): > 100 µM | TGI (HCT-116 colon): > 100 µM | TGI (HCT-15 colon): > 100 µM | TGI (HL-60(TB) leukemia): > 100 µM | TGI (HOP-18 NSCLC): > 100 µM | TGI (HOP-62 NSCLC): > 100 µM | TGI (HOP-92 NSCLC): > 100 µM | TGI (HT29 colon): > 100 µM | TGI (IGROV1 ovarian): > 100 µM | TGI (K-562 leukemia): > 100 µM | TGI (KM12 colon): > 100 µM | TGI (KM20L2 colon): > 100 µM | TGI (LOX IMVI melanoma): > 100 µM | TGI (LXFL 529 NSCLC): > 100 µM | TGI (M14 melanoma): > 100 µM | TGI (M19-MEL melanoma): > 100 µM | TGI (MALME-3M melanoma): > 100 µM | TGI (MOLT-4 leukemia): > 100 µM | TGI (NCI-H226 lung): > 100 µM | TGI (NCI-H23 lung): > 100 µM | TGI (NCI-H460 lung): > 100 µM | TGI (NCI-H522 lung): > 100 µM | TGI (OVCAR-3 ovarian): > 100 µM | TGI (OVCAR-4 ovarian): > 100 µM | TGI (OVCAR-8 ovarian): > 100 µM | TGI (RPMI-8226 leukemia): > 100 µM | TGI (RXF 393 renal): > 100 µM | TGI (RXF-631 renal): > 100 µM | TGI (SF-268 CNS): > 100 µM | TGI (SK-MEL-2 melanoma): > 100 µM | TGI (SK-MEL-28 melanoma): > 100 µM | TGI (SK-MEL-5 melanoma): > 100 µM | TGI (SK-OV-3 ovarian): > 100 µM | TGI (SN12C renal): > 100 µM | TGI (SNB-19 CNS): > 100 µM | TGI (SNB-75 CNS): > 100 µM | TGI (SW-620 colon): > 100 µM | TGI (TK-10 renal): > 100 µM | TGI (U251 CNS): > 100 µM | TGI (UACC-257 melanoma): > 100 µM | TGI (UACC-62 melanoma): > 100 µM | TGI (UO-31 renal): > 100 µM | TGI (XF 498 CNS): > 100 µM
